{
  "source": "patent US20170119704A1",
  "about": "“TREATMENT OF COGNITIVE IMPAIRMENT” (Ovid Therapeutics Inc., priority 2015, published 2017)",
  "origin": "cited, not measured here",
  "details": "in vivo",
  "data": [
    {"molecule": "CN(C)CCO/N=C(/C=C/c1ccc(O)cc1)c1ccccc1F", "note": "[Eplivanserin, (1Z,2E)-1-(2-fluorophenyl)-3-(4-hydroxyphenyl)-prop-2-en-1-one-O-(2-dimethylaminoethyl)-oxime]", "values": [
      {"measurement": "absorption (well absorbed)", "result": "> 70", "unit": "%"}
    ]}
  ]
}
